Results on one compound are retold here after patent EP1124440B1, “USE OF […] FOR FOODSTUFF AND COSMETIC MATERIAL” (Aquacal Limited, priority 1998, dated 2000).

The conditions of data set [1]: ice-cream; B = Yellow Colour. As for the experimental part:
3. Colour was measured using a Minolta colour meter and the results were expressed using LAB values: L = Lightness A = Red Colour B = Yellow Colour
4. A further batch of ice-cream was made to assess if calcium addition effected the over-run properties of the ice-cream.

For data set [2] the following is noted: biscuits. How it is done:
Colour was measured using LAB values. L. Brightness A. Red B. Yellow
The LAB values of the biscuits were measured using a Minolta colour meter.

For data set [3] the following is noted: biscuits cooked for exactly eleven minutes. From the text: Four batches of biscuits were made using the following recipe:
(§1) The biscuits were cooked for exactly eleven minutes and then analysed.
(§2) The following parameters were examined: friability, water activity (Aw) and colour.

For data set [4] the following is noted: water activity; biscuits cooked for exactly eleven minutes.
Source text: as §1, §2

The structures appear in SMILES notation. Where two headings read alike, the source gives them in different places.

For the compound `O=C([O-])[O-].[Ca+2]` [Calcium Carbonate], the B value entry is “significant difference” in data set [1] and “did not effect this value” in data set [2] (B = Yellow). Besides, the A value entry in data set [2] (A = Red) is listed as “significantly reduced”. The compound also registered a L value in data set [2] (L = Brightness) of 72.87. Besides, in data set [3], the Friability entry is listed as “significantly reduced”. Besides, the Aw result in data set [4] is on record as “significantly increased”.
